Data: ChEMBL document CHEMBL3046290, “Metabolic effects of benzylidene thiazolidinedione derivatives in high-fat fed mice” (Med Chem Res, 2012)

Tests used:
[1] = system: Mus musculus; experiment: Toxicity in high-fat fed Mus musculus Swiss albino (mouse) assessed as change in body weight at 30 mg/kg, po qd for 15 days (reference value: 39.9 +/- 1.3 g); type: organism-based; design: dose 30 mg/kg, route oral; conditions: in vivo, 360 h
[2] = system: Mus musculus; experiment: Antihyperlipidemic activity in high-fat fed Mus musculus Swiss albino (mouse) assessed as reduction of serum triglyceride level at 30 mg/kg, po qd for 15 days; type: functional; design: scale not given: the % may be the effect or the level left
[3] = system: Mus musculus; experiment: Antihyperlipidemic activity in high-fat fed Mus musculus Swiss albino (mouse) assessed as reduction of serum cholesterol level at 30 mg/kg, po qd for 15 days; type: functional; design: scale not given: the % may be the effect or the level left
[4] = system: Mus musculus; experiment: Antihyperglycemic activity in high-fat fed Mus musculus Swiss albino (mouse) assessed as reduction of fasting serum glucose level at 30 mg/kg, po qd for 15 days; type: functional; design: scale not given: the % may be the effect or the level left
[5] = system: Mus musculus; experiment: Antihyperglycemic activity in high-fat fed Mus musculus Swiss albino (mouse) assessed as reduction of fasting serum insulin level at 30 mg/kg, po qd for 15 days; type: functional; design: scale not given: the % may be the effect or the level left
[6] = system: Mus musculus; experiment: Antihyperglycemic activity in high-fat fed Mus musculus Swiss albino (mouse) assessed as reduction of insulin resistance index at 30 mg/kg, po qd for 15 days; type: functional; design: scale not given: the % may be the effect or the level left

`COc1ccc(/C=C2\SC(=O)N(Cc3ccc(C)cc3)C2=O)cc1` showed an Activity [1] of 5.12 g, an Activity [2] of 44% and an Activity [3] of 27%. The Activity [4] was 46%, the Activity [5] was 65% and the Activity [6] was 81%.

`COc1ccc(/C=C2\SC(=O)N(Cc3ccc(C)cc3)C2=O)c(OC)c1` was tested, and the Activity [1] was 6.06 g, the Activity [2] was 38% and the Activity [3] was 36%. The Activity [4] was 36%, the Activity [5] was 33% and the Activity [6] was 57%.

Compound `Cc1ccc(CN2C(=O)S/C(=C\c3ccc(N(C)C)cc3)C2=O)cc1` has an Activity [1] of 5.88 g, an Activity [2] of 23% and an Activity [3] of 22%. The Activity [4] was 38%, the Activity [5] was 56% and the Activity [6] was 73%.

Compound `Cc1ccc(CN2C(=O)S/C(=C\c3ccc(Cl)cc3)C2=O)cc1` has an Activity [1] of 6.71 g, an Activity [2] of 42% and an Activity [3] of 40%. The Activity [4] was 29%, the Activity [5] was 27% and the Activity [6] was 49%.

`CN(CCOc1ccc(CC2SC(=O)NC2=O)cc1)c1ccccn1` (stereo not given) [ROSIGLITAZONE] showed an Activity [1] of 5.28 g, an Activity [2] of 43% and an Activity [3] of 35%. It also gave an Activity [4] of 44%, an Activity [5] of 48% and an Activity [6] of 71%.
